Format in all cases: cell-based
The target of test [1] is T1, FGFR1c and co-receptor beta-Klotho (KLB) (Homo sapiens, UniProt P11362+Q86Z14).
T1 construct: host or cells: iLite FGF21 Assay Ready Cells (HEK293)
In words: Luciferase reporter gene assay (iLite FGF21 Assay Ready Cells), FGF21-like signaling. The following applies: monovalent Fab versus bivalent antibody. On the technique in general: In a reporter assay the amount or activity of a reporter protein is the signal.

A further test has as its target T2, human GIP receptor (Homo sapiens, UniProt P48546).
T2 construct: expressed in transfected cells; host or cells: PSC-HEK-293
T2 sequence (P48546 22-466): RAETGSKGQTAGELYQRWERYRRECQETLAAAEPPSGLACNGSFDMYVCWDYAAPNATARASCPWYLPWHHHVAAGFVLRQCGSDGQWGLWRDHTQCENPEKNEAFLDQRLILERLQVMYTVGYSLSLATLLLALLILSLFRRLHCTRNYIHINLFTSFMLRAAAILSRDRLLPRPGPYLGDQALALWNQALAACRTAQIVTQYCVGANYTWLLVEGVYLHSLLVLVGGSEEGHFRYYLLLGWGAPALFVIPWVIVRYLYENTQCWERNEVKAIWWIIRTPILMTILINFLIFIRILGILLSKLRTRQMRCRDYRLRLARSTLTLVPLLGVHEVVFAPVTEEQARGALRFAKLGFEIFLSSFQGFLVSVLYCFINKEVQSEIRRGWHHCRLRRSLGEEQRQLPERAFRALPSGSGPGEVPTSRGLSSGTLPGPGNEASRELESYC
Put plainly: HTRF cAMP assay in HEK-293 cells expressing human GIP receptor.

The target in the next test is T3, human GLP-1 receptor (Homo sapiens, UniProt P43220).
T3 construct: expressed in transfected cells; host or cells: PSC-HEK-293
Put plainly: HTRF cAMP assay in HEK-293 cells expressing human GLP-1 receptor. (In general: In TR-FRET formats the signal depends on donor and acceptor labels being close together.)

Test [2] addresses T4, human glucagon (GCG) receptor (Homo sapiens, UniProt P47871).
T4 construct: expressed in transfected cells; host or cells: PSC-HEK-293
Put plainly: HTRF cAMP assay in HEK-293 cells expressing human glucagon receptor.

Where [3] appears, read: HEK-293 cells, read-out: HTRF cAMP EC50 Human GIPR.
[4] abbreviates: HEK-293 cells, read-out: HTRF cAMP EC50 Human GLP-1R.
Setting [5] is: HEK-293 cells, read-out: HTRF cAMP EC50 Human GCGR.

Where two headings read alike, the source gives them in different places. Peptide text beside a SMILES is read from it.

T4 sequence (P47871 26-477): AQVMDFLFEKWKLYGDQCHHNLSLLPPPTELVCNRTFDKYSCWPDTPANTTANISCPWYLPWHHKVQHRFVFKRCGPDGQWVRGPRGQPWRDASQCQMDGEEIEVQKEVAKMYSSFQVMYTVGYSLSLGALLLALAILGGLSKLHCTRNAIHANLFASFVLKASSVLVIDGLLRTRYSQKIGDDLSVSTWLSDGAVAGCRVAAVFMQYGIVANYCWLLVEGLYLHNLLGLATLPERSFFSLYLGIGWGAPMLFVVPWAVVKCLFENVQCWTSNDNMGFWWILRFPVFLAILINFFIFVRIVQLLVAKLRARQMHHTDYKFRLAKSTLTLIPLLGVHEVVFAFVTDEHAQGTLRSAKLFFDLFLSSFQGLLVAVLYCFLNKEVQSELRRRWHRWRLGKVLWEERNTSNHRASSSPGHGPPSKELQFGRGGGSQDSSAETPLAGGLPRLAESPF
T3 sequence (P43220 24-463): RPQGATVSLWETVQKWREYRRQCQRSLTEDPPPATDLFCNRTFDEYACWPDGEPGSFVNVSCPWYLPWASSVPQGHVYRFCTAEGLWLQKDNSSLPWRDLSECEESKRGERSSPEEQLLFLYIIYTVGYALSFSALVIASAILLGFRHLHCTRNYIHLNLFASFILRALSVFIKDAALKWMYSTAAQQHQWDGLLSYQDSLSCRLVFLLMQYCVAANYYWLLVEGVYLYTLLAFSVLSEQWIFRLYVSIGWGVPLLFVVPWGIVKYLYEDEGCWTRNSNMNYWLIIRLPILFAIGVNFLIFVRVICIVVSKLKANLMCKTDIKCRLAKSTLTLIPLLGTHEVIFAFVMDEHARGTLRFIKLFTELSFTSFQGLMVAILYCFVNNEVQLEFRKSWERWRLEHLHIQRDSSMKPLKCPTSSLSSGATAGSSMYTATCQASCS
T1 sequence (Q86Z14 53-1044 limits assumed): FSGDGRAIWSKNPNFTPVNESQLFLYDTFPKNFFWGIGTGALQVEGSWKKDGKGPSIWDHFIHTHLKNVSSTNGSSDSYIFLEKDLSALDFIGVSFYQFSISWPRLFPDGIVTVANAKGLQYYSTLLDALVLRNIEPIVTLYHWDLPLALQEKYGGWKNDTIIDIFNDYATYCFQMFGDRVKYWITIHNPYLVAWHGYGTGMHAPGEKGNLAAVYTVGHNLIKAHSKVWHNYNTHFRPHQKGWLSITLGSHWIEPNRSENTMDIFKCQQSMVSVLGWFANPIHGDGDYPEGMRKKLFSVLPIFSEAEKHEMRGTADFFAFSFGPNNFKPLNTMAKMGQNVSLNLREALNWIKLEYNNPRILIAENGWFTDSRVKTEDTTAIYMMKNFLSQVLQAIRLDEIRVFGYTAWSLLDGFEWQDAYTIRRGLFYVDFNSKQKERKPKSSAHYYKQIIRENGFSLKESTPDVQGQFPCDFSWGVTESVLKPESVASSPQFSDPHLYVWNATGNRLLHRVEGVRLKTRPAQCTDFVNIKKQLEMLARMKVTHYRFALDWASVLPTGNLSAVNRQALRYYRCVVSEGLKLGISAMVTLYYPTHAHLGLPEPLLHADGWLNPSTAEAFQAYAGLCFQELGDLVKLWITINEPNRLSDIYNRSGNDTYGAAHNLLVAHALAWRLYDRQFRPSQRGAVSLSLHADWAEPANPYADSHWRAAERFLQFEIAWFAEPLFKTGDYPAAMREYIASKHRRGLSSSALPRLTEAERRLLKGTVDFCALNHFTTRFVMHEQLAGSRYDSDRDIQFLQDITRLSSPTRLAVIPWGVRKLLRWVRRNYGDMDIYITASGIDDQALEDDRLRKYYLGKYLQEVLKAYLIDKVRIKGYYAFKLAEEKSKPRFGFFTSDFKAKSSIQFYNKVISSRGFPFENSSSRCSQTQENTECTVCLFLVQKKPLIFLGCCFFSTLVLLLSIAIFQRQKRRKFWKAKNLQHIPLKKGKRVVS
T1 sequence (P11362 22-820 isoform P11362-2 limits assumed): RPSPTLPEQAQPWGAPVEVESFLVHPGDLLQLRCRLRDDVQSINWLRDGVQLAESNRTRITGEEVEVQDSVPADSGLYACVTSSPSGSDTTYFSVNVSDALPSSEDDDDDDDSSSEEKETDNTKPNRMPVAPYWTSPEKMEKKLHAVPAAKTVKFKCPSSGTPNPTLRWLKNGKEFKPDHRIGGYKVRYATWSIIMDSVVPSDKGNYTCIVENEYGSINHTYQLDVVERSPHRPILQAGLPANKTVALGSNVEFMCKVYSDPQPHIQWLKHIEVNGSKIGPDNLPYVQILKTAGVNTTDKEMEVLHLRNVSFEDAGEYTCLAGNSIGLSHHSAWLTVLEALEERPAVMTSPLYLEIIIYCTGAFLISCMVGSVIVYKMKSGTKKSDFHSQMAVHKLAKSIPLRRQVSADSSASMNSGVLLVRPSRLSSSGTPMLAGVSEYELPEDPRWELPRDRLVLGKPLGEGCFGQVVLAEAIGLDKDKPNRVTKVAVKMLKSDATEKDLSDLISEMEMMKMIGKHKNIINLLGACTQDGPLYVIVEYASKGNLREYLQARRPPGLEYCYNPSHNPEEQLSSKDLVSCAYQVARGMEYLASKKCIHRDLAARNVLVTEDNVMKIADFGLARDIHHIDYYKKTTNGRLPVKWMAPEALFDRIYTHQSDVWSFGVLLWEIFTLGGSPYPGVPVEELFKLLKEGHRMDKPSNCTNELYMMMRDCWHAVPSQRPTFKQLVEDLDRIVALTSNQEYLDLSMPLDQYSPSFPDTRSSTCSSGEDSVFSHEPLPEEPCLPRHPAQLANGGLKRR

As for “16H7-Fab: monovalent Fab fragment (antigen-binding fragment) of 16H7 [Ab 16H7-Fab, reference compound]”, in test [1], the “FGF21-like activity in Luciferase gene reporter assay (in words)” value is “inactive”.
In general, EC50 refers to the concentration giving half of the maximal effect. With `CC[C@H](C)[C@H](NC(=O)[C@H](Cc1ccccc1)NC(=O)[C@H](CC(C)C)NC(=O)[C@H](CCC(N)=O)NC(=O)[C@@H](NC(=O)[C@H](CCCNC(=N)N)NC(=O)[C@H](CCC(=O)O)NC(=O)[C@H](CCC(=O)O)NC(=O)[C@H](CCC(=O)O)NC(=O)[C@H](CC(C)C)NC(=O)[C@H](CCC(N)=O)NC(=O)[C@H](CCCCN)NC(=O)[C@H](CO)NC(=O)[C@H](CC(C)C)NC(=O)[C@H](CC(=O)O)NC(=O)[C@H](CO)NC(=O)[C@@H](NC(=O)[C@H](Cc1ccccc1)NC(=O)[C@@H](NC(=O)CNC(=O)[C@H](CCC(=O)O)NC(=O)CNC(=O)[C@@H](N)Cc1c[nH]cn1)[C@@H](C)O)[C@@H](C)O)C(C)C)C(=O)N[C@@H](CCC(=O)O)C(=O)N[C@@H](Cc1c[nH]c2ccccc12)C(=O)N[C@@H](CC(C)C)C(=O)N[C@@H](CCCCN)C(=O)N[C@@H](C)C(=O)N[C@H](C(=O)NCC(=O)N1CCC[C@H]1C(=O)N[C@@H](CO)C(=O)N[C@@H](CO)C(=O)NCC(=O)N[C@@H](C)C(=O)N1CCC[C@H]1C(=O)N1CCC[C@H]1C(=O)N1CCC[C@H]1C(=O)N[C@@H](CO)C(N)=O)[C@@H](C)O` [Ab P008] (H-HGEGTFTSDLSKQLEEERVQLFIEWLKATGPSSGAPPPS-NH2), the EC50 on human GIP receptor was greater than 10 nM; on human GLP-1 receptor it was 0.0232 nM; in test [2] it was greater than 10 nM.
As for `CC[C@H](C)[C@H](NC(=O)[C@H](CC(C)C)NC(=O)[C@H](Cc1c[nH]c2ccccc12)NC(=O)[C@H](Cc1ccc(O)cc1)NC(=O)[C@@H](NC(=O)[C@H](Cc1ccccc1)NC(=O)[C@H](CC(C)C)NC(=O)[C@H](CCCNC(=N)N)NC(=O)[C@@H](NC(=O)[C@H](CC(C)C)NC(=O)[C@H](CCCNC(=N)N)NC(=O)[C@H](CCCCN)NC(=O)[C@H](CCC(=O)O)NC(=O)[C@H](CC(C)C)NC(=O)[C@H](CCC(N)=O)NC(=O)[C@H](CCCCN)NC(=O)[C@H](CO)NC(=O)[C@H](CCCCN)NC(=O)[C@H](CC(=O)O)NC(=O)[C@H](CO)NC(=O)[C@@H](NC(=O)[C@H](Cc1ccccc1)NC(=O)[C@@H](NC(=O)CNC(=O)[C@H](CCC(=O)O)NC(=O)CNC(=O)[C@@H](N)Cc1c[nH]cn1)[C@@H](C)O)[C@@H](C)O)C(C)C)[C@@H](C)CC)C(=O)N[C@@H](C)C(=O)NCC(=O)NCC(=O)N[C@@H](Cc1c[nH]cn1)C(=O)N[C@@H](CO)C(=O)N[C@@H](CO)C(=O)NCC(=O)N[C@@H](CCCCN)C(=O)N1CCC[C@H]1C(=O)N1CCC[C@H]1C(=O)N1CCC[C@H]1C(=O)N[C@@H](CCCCN)C(N)=O` [Ab P024] (H-HGEGTFTSDKSKQLEKRLVRLFIYWLIAGGHSSGKPPPK-NH2; N-terminus assumed), the EC50 was no less than 10 nM at human GIP receptor (setting [3]), 0.0026 nM at human GLP-1 receptor (setting [4]) and greater than 10 nM in test [2] (setting [5]).
In the same order, the values of `CC[C@H](C)[C@H](NC(=O)[C@H](CC(C)C)NC(=O)[C@H](Cc1c[nH]c2ccccc12)NC(=O)[C@H](Cc1ccc(O)cc1)NC(=O)[C@@H](NC(=O)[C@H](Cc1ccccc1)NC(=O)[C@H](CC(C)C)NC(=O)[C@H](CCCNC(=N)N)NC(=O)[C@H](CCC(N)=O)NC(=O)[C@H](CC(C)C)NC(=O)[C@H](CCCNC(=N)N)NC(=O)[C@H](CCCCN)NC(=O)[C@H](CCC(=O)O)NC(=O)[C@H](CC(C)C)NC(=O)[C@H](CCC(N)=O)NC(=O)[C@H](CCCCN)NC(=O)[C@H](CO)NC(=O)[C@H](CC(C)C)NC(=O)[C@H](CC(=O)O)NC(=O)[C@H](CO)NC(=O)[C@@H](NC(=O)[C@H](Cc1ccccc1)NC(=O)[C@@H](NC(=O)CNC(=O)[C@H](CCC(=O)O)NC(=O)CNC(=O)[C@@H](N)Cc1c[nH]cn1)[C@@H](C)O)[C@@H](C)O)[C@@H](C)CC)C(=O)N[C@@H](C)C(=O)NCC(=O)NCC(=O)N[C@@H](Cc1c[nH]cn1)C(=O)N[C@@H](CO)C(=O)N[C@@H](CO)C(=O)NCC(=O)N[C@@H](CCCCN)C(=O)N1CCC[C@H]1C(=O)N1CCC[C@H]1C(=O)N1CCC[C@H]1C(=O)N[C@@H](CCCCN)C(N)=O` [Ab P025] (H-HGEGTFTSDLSKQLEKRLQRLFIYWLIAGGHSSGKPPPK-NH2; N-terminus assumed) are 1.6 nM, 0.0016 nM and 0.545 nM.
In the same order, the values of `CC[C@H](C)[C@H](NC(=O)[C@H](Cc1ccccc1)NC(=O)[C@H](CC(C)C)NC(=O)[C@H](CCC(N)=O)NC(=O)[C@@H](NC(=O)[C@H](C)NC(=O)[C@H](CCC(=O)O)NC(=O)[C@H](CCC(=O)O)NC(=O)[C@H](CCC(=O)O)NC(=O)[C@H](CC(C)C)NC(=O)[C@H](CCC(N)=O)NC(=O)[C@H](CCCCN)NC(=O)[C@H](CO)NC(=O)[C@H](CC(C)C)NC(=O)[C@H](CC(=O)O)NC(=O)[C@H](CO)NC(=O)[C@@H](NC(=O)[C@H](Cc1ccccc1)NC(=O)[C@@H](NC(=O)CNC(=O)[C@H](CCC(=O)O)NC(=O)CNC(=O)[C@H](Cc1c[nH]cn1)NC(=O)CN)[C@@H](C)O)[C@@H](C)O)C(C)C)C(=O)N[C@@H](C)C(=O)N[C@@H](Cc1c[nH]c2ccccc12)C(=O)N[C@@H](CC(C)C)C(=O)N[C@H](C(=O)N[C@@H](CCCCN)C(N)=O)C(C)C` [Ab P041] (H-GHGEGTFTSDLSKQLEEEAVQLFIAWLVK-NH2; N-terminus assumed) are greater than 10 nM, 0.0325 nM and greater than 10 nM.
In the same order, the values of `CC[C@H](C)[C@H](NC(=O)[C@H](Cc1ccccc1)NC(=O)[C@H](CC(C)C)NC(=O)[C@H](CCC(N)=O)NC(=O)[C@@H](NC(=O)[C@H](C)NC(=O)[C@H](CCC(=O)O)NC(=O)[C@H](CCC(=O)O)NC(=O)[C@H](CCC(=O)O)NC(=O)[C@H](CC(C)C)NC(=O)[C@H](CCC(N)=O)NC(=O)[C@H](CCCCN)NC(=O)[C@H](CO)NC(=O)[C@H](CC(C)C)NC(=O)[C@H](CC(=O)O)NC(=O)[C@H](CO)NC(=O)[C@@H](NC(=O)[C@H](Cc1ccccc1)NC(=O)[C@@H](NC(=O)CNC(=O)[C@H](CCC(=O)O)NC(=O)CNC(=O)[C@H](Cc1c[nH]cn1)NC(=O)CN)[C@@H](C)O)[C@@H](C)O)C(C)C)C(=O)N[C@@H](CCC(=O)O)C(=O)N[C@@H](Cc1c[nH]c2ccccc12)C(=O)N[C@@H](CC(C)C)C(=O)N[C@@H](CCCCN)C(=O)N[C@@H](C)C(=O)NCC(=O)NCC(=O)N1CCC[C@H]1C(=O)N[C@@H](CCCCN)C(=O)N[C@@H](CCCCN)C(=O)N[C@H](C(=O)N[C@@H](CCCNC(=N)N)C(=O)N[C@@H](Cc1ccc(O)cc1)C(=O)N[C@@H](CO)C(N)=O)[C@@H](C)CC` [Ab P015] (H-GHGEGTFTSDLSKQLEEEAVQLFIEWLKAGGPKKIRYS-NH2; N-terminus assumed) are greater than 10 nM, 0.0156 nM and greater than 10 nM.

(Values after patent publication US20250115669A1, “FGFR1/KLB Targeting Agonistic Antigen-Binding Proteins and Conjugates Thereof with GLP-1R Agonistic Peptides” (SANOFI, priority 2020, published 2025).)
